# Reference: patent US9170257B2 (priority 2012, dated 2015)
# Read-outs that look alike come from different tables or passages of the source.
# Tests used:
# [1] = Plasma, urine and bile levels of curcumin and THC 15 minutes post-infusion; format: in vivo, Beagle dogs; conditions: for Plasma level / concentration at 15 min: mean±SE; for concentration at 15 min / Kp: both sexes, dog, in vivo, 10 mg/kg; for concentration at 15 min: Beagle; for Kp: beagle
# Protocol: (§1) The results and analysis for the study are presented for intravenous infusion dosing of a total dose of 10 mg/kg infused over a period of either 2 or 8 hours. Plasma levels of curcumin and its metabolite, THC were measured at timed intervals post-dosing.
# (§2) Bioanalysis was performed on two sets of samples, one set that was treated with phosphoric acid and one set that was not treated with phosphoric acid. […] Values that were below the limit of quantification were assigned a value of 0.
# Fifteen minutes following either the 2 hour or 8 hour infusion, blood, urine and bile samples were taken, prior to the dogs being necropsied and organs removed for the isolation of tissues. Multiple samples of tissue weighing approximately 1 gram were removed and snap frozen in the presence or absence of phosphoric acid (H3PO4). For all tissue samples, the levels of curcumin and THC were determined using a method developed by the Bioanalytical Department at Nucro-Technics. […] Values that were below the limit of quantification were assigned a value of 0. […] Tissue distribution data was analyzed using, unless stated, the data from 4 dogs and are presented as the mean±standard error (S.E.).
# [2] = Plasma pharmacokinetics of curcumin and THC during and after intravenous infusion of liposomal curcumin; format: in vivo, Beagle dogs
# Protocol: as §1
# For the 2 hour infusion, blood samples were taken at predose and 0.25, 0.5, 1.5 and at 2 hours during infusion and at 15 minutes post-infusion. For the 8 hour infusion, blood samples were taken at predose and 0.25, 0.5, 1.5, […] and at 8 hours during infusion and at 15 minutes post-infusion.
# as §2
# Plasma concentration vs. time profiles were analyzed using (unless otherwise stated) the data from 4 dogs. Plasma profiles for the test articles are presented as the mean data±SE of 4 dogs. Average plasma concentrations were used to perform the PK analysis. Plasma concentration vs. time profiles were analyzed and the PK parameters estimated using WinNonlin Version 5.2.1 employing the intravenous infusion model with first order elimination. Unless stated otherwise, the plasma concentration-time profiles for the test articles are presented as the mean data±SE of 4 dogs.
# [3] = both sexes, Beagle, dog, in vivo, 10 mg/kg, 1.25 mg/kg/hr, mean±SE, read-out: [Plasma + PO4]
# [4] = both sexes, Beagle, dog, in vivo, 10 mg/kg, 1.25 mg/kg/hr, mean±SE, read-out: [Plasma]
# [5] = both sexes, Beagle, dog, in vivo, 10 mg/kg, 5 mg/kg/hr, mean±SE, read-out: [Plasma + PO4]
# [6] = both sexes, Beagle, dog, in vivo, 10 mg/kg, 5 mg/kg/hr, mean±SE, read-out: [Plasma]
smiles,measurement,setting,value
"COc1cc(CCC(=O)CC(=O)CCc2ccc(O)c(OC)c2)ccc1O [THC, tetrahydrocurcumin]",Plasma level,"[1]; 15 min after 2 hour infusion, + H3PO4",1167 ± 379 ng/mL
same,Plasma level,"[1]; 15 min after 8 hour infusion, no H3PO4",20 ± 4^2 ng/mL
same,concentration at 15 min,"[1]; 15 min after 2 hour infusion, + H3PO4, read-out: Bile level",391 ± 197 ng/mL
same,concentration at 15 min,"[1]; 15 min after 2 hour infusion, + H3PO4, read-out: Urine level",3590 ± 1080 ng/mL
same,concentration at 15 min,"[1]; 15 min after 2 hour infusion, no H3PO4, read-out: Bile level",187 ± 74 ng/mL
same,concentration at 15 min,"[1]; 15 min after 2 hour infusion, no H3PO4, read-out: Plasma level",38 ± 4 ng/mL
same,concentration at 15 min,"[1]; 15 min after 2 hour infusion, no H3PO4, read-out: Urine level",6420 ± 1450 ng/mL
same,concentration at 15 min,"[1]; 15 min after 8 hour infusion, + H3PO4, read-out: Bile level",168 ± 53 ng/mL
same,concentration at 15 min,"[1]; 15 min after 8 hour infusion, + H3PO4, read-out: Plasma level",142 ± 122 ng/mL
same,concentration at 15 min,"[1]; 15 min after 8 hour infusion, + H3PO4, read-out: Urine level",621 ± 206 ng/mL
same,concentration at 15 min,"[1]; 15 min after 8 hour infusion, no H3PO4, read-out: Bile level",84 ± 12 ng/mL
same,concentration at 15 min,"[1]; 15 min after 8 hour infusion, no H3PO4, read-out: Urine level",2450 ± 84 ng/mL
same,Kp,"[1]; higher infusion rate (5 mg/kg/hr), read-out: bile to plasma concentration ratio",1.2
same,Kp,"[1]; higher infusion rate (5 mg/kg/hr), read-out: urine to plasma concentration ratio",4.4
same,Kp,"[1]; low infusion rate (1.25 mg/kg/hr), read-out: bile to plasma concentration ratio",0.3
same,Kp,"[1]; low infusion rate (1.25 mg/kg/hr), read-out: urine to plasma concentration ratio",3.1
same,Ke,"[2]; 2 hour i.v. infusion, total dose 10 mg/kg, fitted",1.4 h⁻¹
same,ratio of THC to curcumin based on AUC,[2]; 2 hour infusion,9.6
same,ratio of THC to curcumin based on AUC,[2]; 8 hour infusion,6.3
same,Plasma THC levels higher than curcumin,[2]; at both infusion rates (2 and 8 hours),6.3-9.6 fold
same,concentration at 15 min,[2]; [3],59 ± 24 ng/mL
same,concentration at 15 min,[2]; [4],72 ± 15 ng/mL
same,concentration at 30 min,[2]; [3],121 ± 28 ng/mL
same,concentration at 30 min,[2]; [4],63 ± 15 ng/mL
same,concentration at 90 min,[2]; [3],293 ± 73 ng/mL
same,concentration at 90 min,[2]; [4],64 ± 14 ng/mL
same,concentration at 2 hr,[2]; [3],226 ± 64 ng/mL
same,concentration at 2 hr,[2]; [4],68 ± 11 ng/mL
same,concentration at 4 hr,[2]; [3],193 ± 127 ng/mL
same,concentration at 4 hr,[2]; [4],77 ± 8 ng/mL
same,concentration at 6 hr,[2]; [3],64 ± 10 ng/mL
same,concentration at 6 hr,[2]; [4],0 ng/mL
same,concentration at 8 hr,[2]; [3],62 ± 26 ng/mL
same,concentration at 8 hr,[2]; [4],67 ± 29 ng/mL
same,concentration at 15 min,[2]; [5],284 ± 89 ng/mL
same,concentration at 15 min,[2]; [6],483 ± 50 ng/mL
same,concentration at 30 min,[2]; [5],1120 ± 318 ng/mL
same,concentration at 30 min,[2]; [6],566 ± 77 ng/mL
same,concentration at 90 min,[2]; [5],2350 ± 441 ng/mL
same,concentration at 90 min,[2]; [6],891 ± 238 ng/mL
same,concentration at 2 hr,[2]; [6],454 ± 79 ng/mL
same,AUC,"[2]; both sexes, Beagle, dog, in vivo, iv, 10 mg/kg, 2 hr infusion + phosphate, AUC to 15 min post-infusion, read-out: AUC",3800 ng·h/mL
same,AUC,"[2]; both sexes, Beagle, dog, in vivo, iv, 10 mg/kg, 8 hr infusion + Phosphate, AUC to 15 min post-infusion, read-out: AUC",1170 ng·h/mL
same,AUC,"[2]; both sexes, Beagle, dog, in vivo, iv, 10 mg/kg, 8 hr infusion, 10 mg/kg, plasma without phosphoric acid, AUC to 15 min post-infusion, read-out: AUC",411 ng·h/mL
same,Cmax,"[2]; both sexes, Beagle, dog, in vivo, iv, 10 mg/kg, 8 hr infusion, plasma without phosphoric acid, observed, read-out: Cmax",77 ng/mL
same,concentration at 2 h,"[2]; both sexes, beagle, dog, in vivo, 10 mg/kg, 5 mg/kg/hr, 2 hr (end of infusion), mean±SE, read-out: [Plasma + PO4]",2980 ± 852 ng/mL
same,AUC,"[2]; both sexes, beagle, dog, in vivo, iv, 10 mg/kg, 2 hour i.v. infusion, total dose 10 mg/kg, fitted, first-order elimination infusion model, read-out: AUC (estimated PK parameter)",5180 ng·h/mL
same,Cmax,"[2]; both sexes, beagle, dog, in vivo, iv, 10 mg/kg, 2 hour i.v. infusion, total dose 10 mg/kg, fitted, first-order elimination infusion model, read-out: Cmax (estimated PK parameter)",2430 ng/mL
same,AUC,"[2]; both sexes, beagle, dog, in vivo, iv, 10 mg/kg, 2 hour infusion, + phosphoric acid, read-out: calculated AUC (observed)",3800 ng·h/mL
same,Cmax,"[2]; both sexes, beagle, dog, in vivo, iv, 10 mg/kg, 2 hr infusion + phosphate, observed, read-out: Cmax",2980 ng/mL
same,AUC,"[2]; both sexes, beagle, dog, in vivo, iv, 10 mg/kg, 2 hr infusion, 10 mg/kg, plasma without phosphoric acid, AUC to 15 min post-infusion, read-out: AUC",1320 ng·h/mL
same,Cmax,"[2]; both sexes, beagle, dog, in vivo, iv, 10 mg/kg, 2 hr infusion, plasma without phosphoric acid, observed, read-out: Cmax",891 ng/mL
same,Cmax,"[2]; both sexes, beagle, dog, in vivo, iv, 10 mg/kg, 8 hr infusion + Phosphate, observed, read-out: Cmax",293 ng/mL
same,MRT,"[2]; both sexes, beagle, dog, in vivo, iv, 2 hour i.v. infusion, total dose 10 mg/kg, fitted, read-out: MRT",42 min
same,half-life,"[2]; both sexes, beagle, dog, in vivo, iv, 2 hour i.v. infusion, total dose 10 mg/kg, fitted, read-out: t1/2(e) (converted)",30 min
same,ratio of plasma THC to curcumin,[2]; two infusion rates,6.3-9.6
